SMILES strings stand for the structures.

For assay [1], the system named is Escherichia coli. As to the kind of experiment: Photocleavage activity against pUC18 DNA assessed as conversion supercoiled to nicked circular form relative to H2pXy-Zn complex.
Assay [2] concerns Escherichia coli. Description: Photocleavage activity against pUC18 DNA assessed as increase in conversion supercoiled to nicked circular form in presence of 20% DMSO after 30 mins.
The test system of assay [3] is Escherichia coli. As to the kind of experiment: Photocleavage activity against pUC18 DNA assessed as conversion supercoiled to nicked circular form relative to H2TMPyP.
Assay [4] has as its system Escherichia coli. As to the kind of experiment: Photocleavage activity against pUC18 DNA assessed as conversion supercoiled to nicked circular form relative to H2pXy.
Assay [5] concerns Escherichia coli. Description: Photocleavage activity against pUC18 DNA assessed as conversion supercoiled to nicked circular form relative to H2mXy-Zn complex.

With `C[n+]1ccc(-c2c3nc(c(-c4cc[n+](C)cc4)c4ccc([nH]4)c(-c4cc[n+](C)cc4)c4nc(c(-c5ccc(C(=O)NCc6ccc(CNC(=O)c7ccc(-c8c9nc(c(-c%10cc[n+](C)cc%10)c%10ccc([nH]%10)c(-c%10cc[n+](C)cc%10)c%10nc(c(-c%11cc[n+](C)cc%11)c%11ccc8[nH]%11)C=C%10)C=C9)cc7)cc6)cc5)c5ccc2[nH]5)C=C4)C=C3)cc1`, the Activity in the assay on Escherichia coli [1] came out at 26%; in the assay on Escherichia coli [2], 95%.

As to `C[n+]1ccc(-c2c3nc(c(-c4cc[n+](C)cc4)c4ccc([nH]4)c(-c4cc[n+](C)cc4)c4nc(c(-c5ccc(C(=O)NCc6cccc(CNC(=O)c7ccc(-c8c9nc(c(-c%10cc[n+](C)cc%10)c%10ccc([nH]%10)c(-c%10cc[n+](C)cc%10)c%10nc(c(-c%11cc[n+](C)cc%11)c%11ccc8[nH]%11)C=C%10)C=C9)cc7)c6)cc5)c5ccc2[nH]5)C=C4)C=C3)cc1`, the Activity in the assay with Escherichia coli [3] was found to be 28%; in the assay with Escherichia coli [1] it was 6%; with Escherichia coli [4], 25%; with Escherichia coli [5], 12%.

For the origin of these results see ChEMBL document CHEMBL1140000, “Synthetic control of interchromophoric interaction in cationic bis-porphyrins toward efficient DNA photocleavage and singlet oxygen production in aqueous solution” (Bioorg Med Chem, 2007).
